Measurements: patent US9650366B2, “Heterocycle-substituted pyridyl benzothiophenes as kinase inhibitors” (Allergan, Inc., priority 2014, dated 2017)

Legend:
Type in all cases: biochemical
human GST-PKR = human GST-PKR (Homo sapiens (Human), UniProt P19525); assay: PKR KinaseGlo Assay; conditions: recombinant human GST-PKR, 6.6 uM ATP
Experimental: Commercially available recombinant human GST-PKR (SignalChem, Canada; 1.5 uM-2 uM stock) is diluted to 500 nM in assay buffer (20 mM Tris-HCl, pH 7.2, 10 mM KCl, 10 mM MgCl2, 10% glycerol). Preactivated PKR is dispensed to 384/96-well black plates at 3.125/12.5 uls/well using the liquid handler Janus. Appropriate dilutions of inhibitors are added to 384/96-well plate followed by 6.6 uM ATP (final) and incubated for 10 minutes at room temperature. The remaining ATP/well is determined by adding 6.25/25 uls/well Kinase-Glo assay mix (Promega) and luminescence is measured on EnVision luminescence plate reader (integration time, 0.2 sec; Perkin-Elmer, Massachusetts, USA). The % inhibition for the compounds is calculated using ATP only (100% inhibition) and PKR+ATP (0% inhibition). IC50 values are determined by plotting % activity versus inhibitor concentration. Curves are fitted using Activity base XLfit (IDBS, UK) using the formula—
4 Parameter Logistic Model
fit=(A+((B−A)/(1+(10^((C−x)*D))))) inv=(C−(log(((B−A)/(y−A))−1)/D)) res=(y−fit)

VEGFR2 (KDR) = VEGFR2 (KDR) (Homo sapiens (Human), UniProt P35968); assay: VEGFR2 Kinase Assay; conditions: purified cytoplasmic domain KDR protein, 2.7 μM ATP
Experimental: Biochemical KDR kinase assays were performed in 96 well microtiter plates that were coated overnight with 75 μg/well of poly-Glu-Tyr (4:1) in 10 mM Phosphate Buffered Saline (PBS), pH 7.4. The coated plates were washed with 2 mls per well PBS+0.05% Tween-20 (PBS-T), blocked by incubation with PBS containing 1% BSA, then washed with 2 mls per well PBS-T prior to starting the reaction. Reactions were carried out in 100 μL reaction volumes containing 2.7 μM ATP in kinase buffer (50 mM Hepes buffer pH 7.4, 20 mM MgCl2, 0.1 mM MnCl2 and 0.2 mM Na3VO4). Test compounds were reconstituted in 100% DMSO and added to the reaction to give a final DMSO concentration of 5%. Reactions were initiated by the addition 20 ul per well of kinase buffer containing 200-300 ng purified cytoplasmic domain KDR protein (BPS Bioscience, San Diego, Calif.). Following a 15 minute incubation at 30° C., the reactions were washed 2 mls per well PBS-T. 100 μl of a monoclonal anti-phosphotyrosine antibody-peroxidase conjugate diluted 1:10,000 in PBS-T was added to the wells for 30 minutes. Following a 2 mls per well wash with PBS-Tween-20, 100 μl of 0-Phenylenediamine Dihydrochloride in phosphate-citrate buffer, containing urea hydrogen peroxide, was added to the wells for 7-10 minutes as a colorimetric substrate for the peroxidase. The reaction was terminated by the addition of 100 μl of 2.5N H2SO4 to each well and read using a microplate ELISA reader set at 492 nm. IC50 values for compound inhibition were calculated directly from graphs of optical density (arbitrary units) versus compound concentration following subtraction of blank values.

PDGFRβ = PDGFRβ (Homo sapiens (Human), UniProt P09619); assay: PDGFRβ Kinase Assay; conditions: purified cytoplasmic domain PDGFR-b protein, 36 μM ATP
Experimental: Biochemical PDGFRβ kinase assays were performed in 96 well microtiter plates that were coated overnight with 75 μg of poly-Glu-Tyr (4:1) in 10 mM Phosphate Buffered Saline (PBS), pH 7.4. The coated plates were washed with 2 mls per well PBS+0.05% Tween-20 (PBS-T), blocked by incubation with PBS containing 1% BSA, then washed with 2 mls per well PBS-T prior to starting the reaction. Reactions were carried out in 100 μL reaction volumes containing 36 μM ATP in kinase buffer (50 mM Hepes buffer pH 7.4, 20 mM MgCl2, 0.1 mM MnCl2 and 0.2 mM Na3VO4). Test compounds were reconstituted in 100% DMSO and added to the reaction to give a final DMSO concentration of 5%. Reactions were initiated by the addition 20 ul per well of kinase buffer containing 200-300 ng purified cytoplasmic domain PDGFR-b protein (Millipore). Following a 60 minute incubation at 30° C., the reactions were washed 2 mls per well PBS-T. 100 μl of a monoclonal anti-phosphotyrosine antibody-peroxidase conjugate diluted 1:10,000 in PBS-T was added to the wells for 30 minutes. […] The reaction was terminated by the addition of 100 μl of 2.5N H2SO4 to each well and read using a microplate ELISA reader set at 492 nm. IC50 values for compound inhibition were calculated directly from graphs of optical density (arbitrary units) versus compound concentration following subtraction of blank values.

Chain of VEGFR2 (KDR) (P35968 786-1356): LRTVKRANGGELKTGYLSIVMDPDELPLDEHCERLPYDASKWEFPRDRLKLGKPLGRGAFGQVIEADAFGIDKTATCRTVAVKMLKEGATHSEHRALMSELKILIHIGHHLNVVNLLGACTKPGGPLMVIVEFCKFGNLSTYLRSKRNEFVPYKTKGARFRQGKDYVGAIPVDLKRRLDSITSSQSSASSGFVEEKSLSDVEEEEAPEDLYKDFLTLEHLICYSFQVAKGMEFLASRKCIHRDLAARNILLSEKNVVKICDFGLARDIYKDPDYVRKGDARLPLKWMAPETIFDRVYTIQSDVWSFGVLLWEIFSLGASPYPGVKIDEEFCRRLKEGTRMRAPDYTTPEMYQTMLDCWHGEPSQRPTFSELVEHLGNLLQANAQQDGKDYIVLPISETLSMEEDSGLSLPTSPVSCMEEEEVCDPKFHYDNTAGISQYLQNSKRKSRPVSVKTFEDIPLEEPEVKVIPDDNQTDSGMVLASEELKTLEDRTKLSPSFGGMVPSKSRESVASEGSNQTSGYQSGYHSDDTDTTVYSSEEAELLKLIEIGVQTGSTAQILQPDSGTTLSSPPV
Chain of human GST-PKR (P19525 whole entry): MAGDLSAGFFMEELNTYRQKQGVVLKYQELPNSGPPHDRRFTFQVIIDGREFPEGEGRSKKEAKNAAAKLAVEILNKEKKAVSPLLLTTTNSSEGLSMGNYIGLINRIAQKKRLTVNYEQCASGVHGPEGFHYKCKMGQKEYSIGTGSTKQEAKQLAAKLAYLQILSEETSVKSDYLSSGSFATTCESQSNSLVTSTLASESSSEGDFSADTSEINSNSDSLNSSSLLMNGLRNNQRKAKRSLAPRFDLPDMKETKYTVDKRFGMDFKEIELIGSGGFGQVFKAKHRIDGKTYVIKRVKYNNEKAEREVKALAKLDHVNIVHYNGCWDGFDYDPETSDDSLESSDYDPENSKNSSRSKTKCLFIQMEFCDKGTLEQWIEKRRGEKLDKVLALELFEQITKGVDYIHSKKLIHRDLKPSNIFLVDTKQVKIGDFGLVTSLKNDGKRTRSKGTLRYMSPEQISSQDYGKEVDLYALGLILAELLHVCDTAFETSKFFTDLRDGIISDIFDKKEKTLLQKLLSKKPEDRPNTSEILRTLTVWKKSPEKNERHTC
Chain of PDGFRβ (P09619 554-1106): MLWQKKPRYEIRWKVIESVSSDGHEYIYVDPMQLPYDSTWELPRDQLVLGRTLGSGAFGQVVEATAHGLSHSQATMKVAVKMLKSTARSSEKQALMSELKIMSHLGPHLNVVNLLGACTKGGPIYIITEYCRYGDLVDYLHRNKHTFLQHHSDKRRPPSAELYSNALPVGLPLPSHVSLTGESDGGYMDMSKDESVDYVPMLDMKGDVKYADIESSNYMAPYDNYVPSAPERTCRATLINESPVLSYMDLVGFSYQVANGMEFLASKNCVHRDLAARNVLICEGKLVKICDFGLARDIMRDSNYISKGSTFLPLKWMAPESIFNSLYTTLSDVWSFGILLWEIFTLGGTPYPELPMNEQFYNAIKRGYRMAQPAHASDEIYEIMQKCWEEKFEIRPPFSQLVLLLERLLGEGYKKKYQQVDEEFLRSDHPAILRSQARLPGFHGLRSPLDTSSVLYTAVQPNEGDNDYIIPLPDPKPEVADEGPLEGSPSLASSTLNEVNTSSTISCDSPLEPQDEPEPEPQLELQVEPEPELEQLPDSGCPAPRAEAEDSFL

Row | Structure (SMILES) | IC50 (human GST-PKR) [nM] | IC50 (VEGFR2 (KDR)) [nM] | IC50 (PDGFRβ) [nM]
1 | O=C(Nc1ccc(Cl)c(C(F)(F)F)c1)Nc1ccc2sc(-c3cncc(-c4nn[nH]n4)c3)cc2c1 [Example 1, 1-[4-chloro-3-(trifluoromethyl)phenyl]-3-{2-[5-(2H-tetrazol-5-yl)pyridin-3-yl]-1-benzothien-5-yl}urea] | 727 | – | –
2 | Nc1ncc(-c2nn[nH]n2)cc1-c1cc2cc(NC(=O)Nc3ccc(Cl)c(C(F)(F)F)c3)ccc2s1 [Example 2, 1-{2-[2-amino-5-(2H-tetrazol-5-yl)pyridin-3-yl]-1-benzothien-5-yl}-3-[4-chloro-3-(trifluoromethyl)phenyl]urea] | 140 | – | –
3 | Nc1ncc(-c2nnn(CCCO)n2)cc1-c1cc2cc(NC(=O)Nc3ccc(Cl)c(C(F)(F)F)c3)ccc2s1 [Example 3, 1-(2-{2-amino-5-[2-(3-hydroxypropyl)-2H-tetrazol-5-yl]pyridin-3-yl}-1-benzothien-5-yl)-3-[4-chloro-3-(trifluoromethyl)phenyl]urea] | 39 | – | –
4 | Nc1ncc(-c2nnn(CCCO)n2)cc1-c1cc2cc(NC(=O)Nc3ccc(F)c(C(F)(F)F)c3)ccc2s1 [Example 4, 1-(2-{2-amino-5-[2-(3-hydroxypropyl)-2H-tetrazol-5-yl]pyridin-3-yl}-1-benzothien-5-yl)-3-[4-fluoro-3-(trifluoromethyl)phenyl]urea] | 99 | – | –
5 | Nc1ncc(-c2nnn(CCCO)n2)cc1-c1cc2cc(NC(=O)Nc3cc(F)cc(C(F)(F)F)c3)ccc2s1 [Example 5, 1-(2-{2-amino-5-[2-(3-hydroxypropyl)-2H-tetrazol-5-yl]pyridin-3-yl}-1-benzothien-5-yl)-3-[3-fluoro-5-(trifluoromethyl)phenyl]urea] | 76 | – | –
6 | Nc1ncc(-c2nnn(CCCO)n2)cc1-c1cc2cc(NC(=O)Nc3cc(C(F)(F)F)cc(C(F)(F)F)c3)ccc2s1 [Example 6, 1-(2-{2-amino-5-[2-(3-hydroxypropyl)-2H-tetrazol-5-yl]pyridin-3-yl}-1-benzothien-5-yl)-3-[3,5-bis(trifluoromethyl)phenyl]urea] | 66 | – | –
7 | Nc1ncc(-c2nnn(CCO)n2)cc1-c1cc2cc(NC(=O)Nc3ccc(Cl)c(C(F)(F)F)c3)ccc2s1 [Example 8, 1-(2-{2-amino-5-[2-(2-hydroxyethyl)-2H-tetrazol-5-yl]pyridin-3-yl}-1-benzothien-5-yl)-3-[4-chloro-3-(trifluoromethyl)phenyl]urea] | 82 | – | –
8 | Cc1ccoc1C(=O)Nc1cccc(C#Cc2cncc(-c3nnn(CCCO)n3)c2)c1 [Example 9, N-[3-({5-[2-(3-hydroxypropyl)-2H-tetrazol-5-yl]pyridin-3-yl}ethynyl)phenyl]-3-methyl-2-furamide] | > 10000 | 5 | 21
9 | Cc1cccc(C(=O)Nc2cccc(C#Cc3cncc(-c4nnn(CCCO)n4)c3)c2)c1 [Example 10, N-[3-({5-[2-(3-hydroxypropyl)-2H-tetrazol-5-yl]pyridin-3-yl}ethynyl)phenyl]-3-methylbenzamide] | – | 7 | –
10 | Nc1ncc(-c2nnn(CCCO)n2)cc1C#Cc1cccc(NC(=O)Nc2ccc(Cl)c(C(F)(F)F)c2)c1 [Example 11, 1-[3-({2-amino-5-[2-(3-hydroxypropyl)-2H-tetrazol-5-yl]pyridin-3-yl}ethynyl)phenyl]-3-[4-chloro-3-(trifluoromethyl)phenyl]urea] | 158 | – | –
11 | O=C(Nc1ccc(C#Cc2cncc(-c3nnn(CCCO)n3)c2)cc1)Nc1cc(C(F)(F)F)ccc1F [Example 12, 1-[2-fluoro-5-(trifluoromethyl)phenyl]-3-[4-({5-[2-(3-hydroxypropyl)-2H-tetrazol-5-yl]pyridin-3-yl}ethynyl)phenyl]urea] | > 10000 | 8 | –
12 | Nc1ncc(-c2ncccn2)cc1-c1cc2cc(NC(=O)Nc3ccc(Cl)c(C(F)(F)F)c3)ccc2s1 [Example 13, 1-[2-(2-amino-5-pyrimidin-2-ylpyridin-3-yl)-1-benzothien-5-yl]-3-[4-chloro-3-(trifluoromethyl)phenyl]urea] | 558 | – | –
13 | Nc1ncc(-c2cnccn2)cc1-c1cc2cc(NC(=O)Nc3ccc(Cl)c(C(F)(F)F)c3)ccc2s1 [Example 14, 1-[2-(2-amino-5-pyrazin-2-ylpyridin-3-yl)-1-benzothien-5-yl]-3-[4-chloro-3-(trifluoromethyl)phenyl]urea] | 301 | – | –
